Experimental data: US9855277B2, “Use of 5H-dibenz/b,f/azepine-5-carboxamide derivatives for treating fibromyalgia” (BIAL—PORTELA & CA, S.A., priority 2009, dated 2018)

Columns and labels:
[1] = test system: dorsal horn neurones of CCI mice; experiment: Spontaneous activity of dorsal horn neurones in CCI mice (extracellular recording); type: in vivo; conditions: ESL 100 mg/kg i.p.; for spontaneous activity of dorsal horn neurones, firing rate: 5 preparations
Excerpt: Adult male BL CB F1 mice, weighing 25-30 g at the time of surgery and 26-38 g at the time of electrophysiological experiments, were used. The baseline paw withdrawal threshold (PWT) was examined using a series of graduated von Frey hairs (see below) on 3 consecutive days before surgery and re-assessed on the 7th and on the 14th days after surgery, before electrophysiological recording. The animals were killed by an overdose of pentobarbitone on completion of the study. The chronic constriction injury (CCI) model was prepared following the standard protocols described previously (Bennett and Xie, 1988). Mice were anaesthetised and the lateral side of the left thigh was shaved and sterilized with 75% ethanol. A small incision of approximately 0.5 cm was made parallel to the femur. The muscle was carefully separated to expose the sciatic nerve. Three loose ligatures were placed on the sciatic nerve with 5-0 suture silk thread at approximately 1 mm intervals. The wound was closed in layers with suture silk 4-0 and the animals were placed in a recovery chamber with the temperature controlled and set at 30° C. A dose of amoxicillin (0.02 mL, 3 mg) was routinely injected i.p. after surgery to prevent infection. The animals were returned to their home cages after complete recovery of consciousness and freedom of movement. For the first 2 days after surgery, the animals were closely monitored at least twice daily and subsequently, at least once daily until compound testing. The baseline PWT was tested for 3 consecutive days before surgery and re-assessed on the 7th and 14th days after surgery to monitor the development of mechanical allodynia. Only those mice showing significant mechanical allodynia (PWT≦0.2 g) were selected for subsequent electrophysiological experiments. After behavioural validation, the mice were re-anaesthetised, body temperature was monitored and controlled within a physiological range via a thermo-blanket system, and the electrocardiogram (ECG) was routinely monitored through a pair of stainless steel needles inserted into the left fore-paw and right hind-paw. A laminectomy was carried out to expose the L2-L6 segments of the spinal cord. In some experiments, spinalisation at the C2-C3 level or section of the L4-L6 dorsal roots of the left side at a site near the root entry zone to the spinal cord, was performed. A protective pool was formed and filled with warm mineral oil to cover the spinal cord and the sectioned roots. Extracellular unitary recordings of spontaneous activity from the spinal dorsal horn neurones were achieved by using a carbon microelectrode driven by an electrode manipulator. The electrical signals were recorded through a CED micro-1401 interface to a PC for later off-line analysis. Recording from a dorsal horn neurone displaying spontaneous electrical discharge was undertaken for a period of at least 10 min for control and 40 min after either vehicle or ESL administration. The suspension was prepared with a vehicle containing 30% DMSO in 0.9% sodium chloride to a dose concentration of 50 mg/mL. The vehicle and ESL were injected intraperitoneally at a volume of 2 mL/kg through a needle connected with a 1 mL syringe placed prior to the experiment. Each animal received only one treatment of either vehicle or ESL (100 mg/kg). Spontaneous activity was counted as firing rate per minute. An average firing rate over 5 min periods, recorded consecutively immediately prior to vehicle injection or ESL was used as control (and standardized as 100%). The average firing rate over a 5 min period recorded 30-35 min after vehicle or ESL injection was used to quantify firing rate following treatment and compared with the control level. Due to the high level of variation in frequency of spontaneous ectopic discharge from preparation to preparation; all data were standardized relative to control. All data were expressed as mean±SEM. A paired Student's t-test (two-way) was used to compare different time points in the same group. […]

[2] = test system: patients with partial epilepsy; experiment: MADRS, open label extension of phase 3 study, Trial 2; type: in vivo, human
Description: During a further open label extension of a phase 3 study with ESL, the effect on depressive symptoms in patients taking at least one other anti-epileptic drug was assessed using the Montgomery Åsberg Depression Rating Scale (MADRS) at the end of treatment (after one year or after early discontinuation) and results compared with those at baseline. Patients were treated with ESL dosages in the range of 400-1500 mg, the majority being treated once daily with 800 mg ESL.

CC(=O)O[C@H]1Cc2ccccc2N(C(N)=O)c2ccccc21 [ESL, S-(−)-10-acetoxy-10,11-dihydro-5H-dibenz/b,f/azepine-5-carboxamide]
spontaneous activity, % of control ([1]; dorsal root (L4-L6) sectioned CCI mice, 30-35 min, P<0.01 vs vehicle): 29.5±13.3 % of control
spontaneous activity of dorsal horn neurones, average firing rate ([1]; dorsal root (L4-L6) sectioned CCI mice, 30-35 min, control 378.1±85.4, 8 preparations): 97.5±39.0 imps/min
spontaneous activity, % of control level ([1]; intact CCI mice, 30-35 min, P<0.01 vs control): 26.3±10.1 % of control
spontaneous activity of dorsal horn neurones, firing rate ([1]; intact CCI mice, 30-35 min after injection, control 780.7±462.5): 113.6±43.9 imps/min
spontaneous activity, % of control levels ([1]; spinalised (C2-C3) CCI mice, 30-35 min, P<0.001): 14.8±6.8 % of control
spontaneous activity of dorsal horn neurones, firing rate ([1]; spinalised (C2-C3) CCI mice, 30-35 min, control 504.5±286.1, P>0.05): 31.2±12.7 imps/min
MADRS apparent sadness, mean relative improvement ([2]; ITT population (264 patients)): 34%
MADRS concentration difficulties, mean relative improvement ([2]; ITT population (264 patients)): 30%
MADRS inability to feel, mean relative improvement ([2]; ITT population (264 patients)): 38%
MADRS inner tension, mean relative improvement ([2]; ITT population (264 patients)): 31%
MADRS lassitude, mean relative improvement ([2]; ITT population (264 patients)): 38%
MADRS pessimistic thoughts, mean relative improvement ([2]; ITT population (264 patients)): 26%
MADRS reduced appetite, mean relative improvement ([2]; ITT population (264 patients)): 57%
MADRS reduced sleep, mean relative improvement ([2]; ITT population (264 patients)): 48%
MADRS reported sadness, mean relative improvement ([2]; ITT population (264 patients)): 40%
MADRS suicidal thoughts, mean relative improvement ([2]; ITT population (264 patients)): 56%
MADRS apparent sadness, mean relative improvement ([2]; PP population (232 patients)): 38%
MADRS concentration difficulties, mean relative improvement ([2]; PP population (232 patients)): 33%
MADRS inability to feel, mean relative improvement ([2]; PP population (232 patients)): 35%
MADRS inner tension, mean relative improvement ([2]; PP population (232 patients)): 34%
MADRS lassitude, mean relative improvement ([2]; PP population (232 patients)): 39%
MADRS pessimistic thoughts, mean relative improvement ([2]; PP population (232 patients)): 31%
MADRS reduced appetite, mean relative improvement ([2]; PP population (232 patients)): 62%
MADRS reduced sleep, mean relative improvement ([2]; PP population (232 patients)): 53%
MADRS reported sadness, mean relative improvement ([2]; PP population (232 patients)): 41%
MADRS suicidal thoughts, mean relative improvement ([2]; PP population (232 patients)): 60%
depressive mood as assessed by MADRS, change from baseline ([2]; long-term open-label adjunctive therapy, partial epilepsy): statistically significant improvement from baseline
